From patent US9828360B2 (Array BioPharma Inc., priority 2012, dated 2017)

Columns and labels:
Test in all cases: KinaseProfiler off-target kinase profiling
Assay type in all cases: biochemical
Conditions in all cases: 10 μM, ATP near Km
BrSK1 = molecular target: T1, BrSK1 (Homo sapiens, UniProt Q8TDC3)
T1 construct: purchased Millipore, Inc. (KinaseProfiler service)
Procedure: (§1) A representative compound of the invention (Example 48) was tested for off-target kinase activity at a concentration of 10 μM by Millipore, Inc. in their KinaseProfiler™ service against all the kinases available in their full kinase panel. The compound was run in duplicate at a concentration of ATP near the Km for each individual kinase according to Millipore's specifications. The results are shown in Table B. Data are reported as percent of control (POC) and are the average of the two replicates.

DDR2 = molecular target: T2, DDR2 (Homo sapiens, UniProt Q16832)
T2 construct: purchased Millipore, Inc. (KinaseProfiler service)
Procedure: as §1

STK33 = molecular target: T3, STK33 (Homo sapiens, UniProt Q9BYT3)
T3 construct: purchased Millipore, Inc. (KinaseProfiler service)
Procedure: as §1

c-RAF = molecular target: T4, c-RAF (Homo sapiens, UniProt P04049, Y340D/Y341D)
T4 construct: purchased Millipore, Inc. (KinaseProfiler service)
Procedure: as §1

MKNK2 = molecular target: T5, MKNK2 (Homo sapiens, UniProt Q9HBH9)
T5 construct: purchased Millipore, Inc. (KinaseProfiler service)
Procedure: as §1

NLK = molecular target: T6, NLK (Homo sapiens, UniProt Q9UBE8)
T6 construct: purchased Millipore, Inc. (KinaseProfiler service)
Procedure: as §1

FAK = molecular target: T7, FAK (Homo sapiens, UniProt Q05397)
T7 construct: purchased Millipore, Inc. (KinaseProfiler service)
Procedure: as §1

CAMK2d = molecular target: T8, CAMK2d (Homo sapiens, UniProt Q13557)
T8 construct: purchased Millipore, Inc. (KinaseProfiler service)
Procedure: as §1

CHK2 = molecular target: T9, CHK2 (Homo sapiens, UniProt O96017)
T9 construct: purchased Millipore, Inc. (KinaseProfiler service)
Procedure: as §1

JNK3 = molecular target: T10, JNK3 (Homo sapiens, UniProt P53779)
T10 construct: purchased Millipore, Inc. (KinaseProfiler service)
Procedure: as §1

Fes = molecular target: T11, Fes (Homo sapiens, UniProt P07332)
T11 construct: purchased Millipore, Inc. (KinaseProfiler service)
T11 sequence (P07332 whole entry): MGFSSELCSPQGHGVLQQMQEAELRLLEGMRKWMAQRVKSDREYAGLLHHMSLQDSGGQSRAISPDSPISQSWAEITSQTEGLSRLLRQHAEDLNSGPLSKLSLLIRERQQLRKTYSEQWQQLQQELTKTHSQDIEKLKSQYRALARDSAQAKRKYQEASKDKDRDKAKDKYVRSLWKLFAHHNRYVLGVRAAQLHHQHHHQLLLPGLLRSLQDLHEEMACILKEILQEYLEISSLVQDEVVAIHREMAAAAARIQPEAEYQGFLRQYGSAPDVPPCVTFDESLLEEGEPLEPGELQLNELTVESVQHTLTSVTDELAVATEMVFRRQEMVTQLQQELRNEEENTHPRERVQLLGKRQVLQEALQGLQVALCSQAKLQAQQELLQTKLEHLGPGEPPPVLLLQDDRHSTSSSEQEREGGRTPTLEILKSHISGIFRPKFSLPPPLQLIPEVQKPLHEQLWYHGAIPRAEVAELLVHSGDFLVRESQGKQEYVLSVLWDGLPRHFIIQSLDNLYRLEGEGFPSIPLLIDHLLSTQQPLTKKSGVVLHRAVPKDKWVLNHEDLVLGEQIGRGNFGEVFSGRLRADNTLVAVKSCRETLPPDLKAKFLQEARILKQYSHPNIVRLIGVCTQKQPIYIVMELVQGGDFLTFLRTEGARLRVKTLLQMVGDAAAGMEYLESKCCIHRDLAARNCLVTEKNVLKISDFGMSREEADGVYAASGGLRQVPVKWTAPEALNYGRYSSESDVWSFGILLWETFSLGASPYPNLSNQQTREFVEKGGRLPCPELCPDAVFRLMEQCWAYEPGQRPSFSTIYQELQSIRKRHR
Procedure: as §1

PDK1 = molecular target: T12, PDK1 (Homo sapiens, UniProt O15530)
T12 construct: purchased Millipore, Inc. (KinaseProfiler service)
T12 sequence (O15530 whole entry): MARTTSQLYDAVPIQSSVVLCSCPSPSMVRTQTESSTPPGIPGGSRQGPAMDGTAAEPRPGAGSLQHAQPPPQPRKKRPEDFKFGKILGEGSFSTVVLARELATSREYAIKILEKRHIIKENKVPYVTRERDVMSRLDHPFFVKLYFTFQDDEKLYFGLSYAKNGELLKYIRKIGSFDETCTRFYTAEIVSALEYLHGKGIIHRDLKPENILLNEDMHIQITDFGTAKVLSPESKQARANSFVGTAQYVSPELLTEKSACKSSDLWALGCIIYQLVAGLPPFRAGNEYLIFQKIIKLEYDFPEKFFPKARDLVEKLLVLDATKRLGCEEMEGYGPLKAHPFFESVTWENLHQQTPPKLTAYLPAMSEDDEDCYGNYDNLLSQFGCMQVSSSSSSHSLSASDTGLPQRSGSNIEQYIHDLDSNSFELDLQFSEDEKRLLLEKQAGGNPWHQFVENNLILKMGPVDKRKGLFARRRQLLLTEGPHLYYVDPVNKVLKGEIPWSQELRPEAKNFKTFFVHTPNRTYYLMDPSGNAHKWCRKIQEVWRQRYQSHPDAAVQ
Procedure: as §1

CDK7/cyclinH/MAT1 = molecular target: T13, CDK7/cyclinH/MAT1 (Homo sapiens, UniProt P50613)
T13 construct: purchased Millipore, Inc. (KinaseProfiler service)
Procedure: as §1

TAO1 = molecular target: T14, TAO1 (Homo sapiens, UniProt Q7L7X3)
T14 construct: purchased Millipore, Inc. (KinaseProfiler service)
Procedure: as §1

DRAK1 = molecular target: T15, DRAK1 (Homo sapiens, UniProt Q9UEE5)
T15 construct: purchased Millipore, Inc. (KinaseProfiler service)
T15 sequence (Q9UEE5 whole entry): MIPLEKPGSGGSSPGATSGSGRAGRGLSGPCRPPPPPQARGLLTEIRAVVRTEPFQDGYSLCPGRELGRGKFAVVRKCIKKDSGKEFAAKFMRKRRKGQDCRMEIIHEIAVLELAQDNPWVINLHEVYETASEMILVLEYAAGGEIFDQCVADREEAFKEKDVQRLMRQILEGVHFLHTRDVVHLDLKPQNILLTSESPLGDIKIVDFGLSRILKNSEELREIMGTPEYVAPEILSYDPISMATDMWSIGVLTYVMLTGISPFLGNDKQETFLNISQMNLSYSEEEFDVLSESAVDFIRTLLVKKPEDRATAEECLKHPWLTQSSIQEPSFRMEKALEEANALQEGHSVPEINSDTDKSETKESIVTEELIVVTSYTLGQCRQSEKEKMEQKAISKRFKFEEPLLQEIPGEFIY
Procedure: as §1

MuSK = molecular target: T16, MuSK (Homo sapiens, UniProt O15146)
T16 construct: purchased Millipore, Inc. (KinaseProfiler service)
T16 sequence (O15146 24-869): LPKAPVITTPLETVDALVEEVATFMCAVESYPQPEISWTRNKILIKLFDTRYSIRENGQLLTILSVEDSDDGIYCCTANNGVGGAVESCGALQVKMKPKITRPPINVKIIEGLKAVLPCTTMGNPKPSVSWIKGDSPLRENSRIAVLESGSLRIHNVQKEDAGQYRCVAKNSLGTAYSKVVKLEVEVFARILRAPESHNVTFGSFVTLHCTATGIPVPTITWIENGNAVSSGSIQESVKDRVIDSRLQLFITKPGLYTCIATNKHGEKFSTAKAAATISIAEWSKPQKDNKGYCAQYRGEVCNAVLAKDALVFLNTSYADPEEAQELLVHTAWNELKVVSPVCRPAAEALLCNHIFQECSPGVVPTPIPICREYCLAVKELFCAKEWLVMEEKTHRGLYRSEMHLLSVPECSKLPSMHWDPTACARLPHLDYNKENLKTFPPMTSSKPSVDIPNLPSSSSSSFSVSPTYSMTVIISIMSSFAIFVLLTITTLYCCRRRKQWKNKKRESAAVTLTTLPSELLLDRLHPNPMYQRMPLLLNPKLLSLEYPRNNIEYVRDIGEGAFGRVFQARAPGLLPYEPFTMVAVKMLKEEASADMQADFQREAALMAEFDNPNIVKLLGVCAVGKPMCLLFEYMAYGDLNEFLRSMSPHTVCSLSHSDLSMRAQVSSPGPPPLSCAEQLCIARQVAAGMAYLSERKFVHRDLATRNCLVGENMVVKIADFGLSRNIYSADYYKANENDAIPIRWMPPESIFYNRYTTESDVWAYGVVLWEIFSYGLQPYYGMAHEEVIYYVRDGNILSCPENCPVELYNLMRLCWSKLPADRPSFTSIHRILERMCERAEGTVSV
Procedure: as §1

GSK3alpha = molecular target: T17, GSK3alpha (Homo sapiens, UniProt P49840)
T17 construct: purchased Millipore, Inc. (KinaseProfiler service)
Procedure: as §1

Flt1 = molecular target: T18, Flt1 (Homo sapiens, UniProt P17948)
T18 construct: purchased Millipore, Inc. (KinaseProfiler service)
Procedure: as §1

EphB2 = molecular target: T19, EphB2 (Homo sapiens, UniProt P29323)
T19 construct: purchased Millipore, Inc. (KinaseProfiler service)
Procedure: as §1

ALK = molecular target: T20, ALK (Homo sapiens, UniProt Q9UM73)
T20 construct: purchased Millipore, Inc. (KinaseProfiler service)
Procedure: as §1

TAK1 = molecular target: T21, TAK1 (Homo sapiens, UniProt O43318)
T21 construct: purchased Millipore, Inc. (KinaseProfiler service)
Procedure: as §1

Txk = molecular target: T22, Txk (Homo sapiens, UniProt P42681)
T22 construct: purchased Millipore, Inc. (KinaseProfiler service)
Procedure: as §1

TBK1 = molecular target: T23, TBK1 (Homo sapiens, UniProt Q9UHD2)
T23 construct: purchased Millipore, Inc. (KinaseProfiler service)
Procedure: as §1

MAPKAP-K5 = molecular target: T24, MAPKAP-K5 (Homo sapiens, UniProt Q8IW41)
T24 construct: purchased Millipore, Inc. (KinaseProfiler service)
Procedure: as §1

TAO2 = molecular target: T25, TAO2 (Homo sapiens, UniProt Q9UL54)
T25 construct: purchased Millipore, Inc. (KinaseProfiler service)
T25 sequence (Q9UL54 whole entry): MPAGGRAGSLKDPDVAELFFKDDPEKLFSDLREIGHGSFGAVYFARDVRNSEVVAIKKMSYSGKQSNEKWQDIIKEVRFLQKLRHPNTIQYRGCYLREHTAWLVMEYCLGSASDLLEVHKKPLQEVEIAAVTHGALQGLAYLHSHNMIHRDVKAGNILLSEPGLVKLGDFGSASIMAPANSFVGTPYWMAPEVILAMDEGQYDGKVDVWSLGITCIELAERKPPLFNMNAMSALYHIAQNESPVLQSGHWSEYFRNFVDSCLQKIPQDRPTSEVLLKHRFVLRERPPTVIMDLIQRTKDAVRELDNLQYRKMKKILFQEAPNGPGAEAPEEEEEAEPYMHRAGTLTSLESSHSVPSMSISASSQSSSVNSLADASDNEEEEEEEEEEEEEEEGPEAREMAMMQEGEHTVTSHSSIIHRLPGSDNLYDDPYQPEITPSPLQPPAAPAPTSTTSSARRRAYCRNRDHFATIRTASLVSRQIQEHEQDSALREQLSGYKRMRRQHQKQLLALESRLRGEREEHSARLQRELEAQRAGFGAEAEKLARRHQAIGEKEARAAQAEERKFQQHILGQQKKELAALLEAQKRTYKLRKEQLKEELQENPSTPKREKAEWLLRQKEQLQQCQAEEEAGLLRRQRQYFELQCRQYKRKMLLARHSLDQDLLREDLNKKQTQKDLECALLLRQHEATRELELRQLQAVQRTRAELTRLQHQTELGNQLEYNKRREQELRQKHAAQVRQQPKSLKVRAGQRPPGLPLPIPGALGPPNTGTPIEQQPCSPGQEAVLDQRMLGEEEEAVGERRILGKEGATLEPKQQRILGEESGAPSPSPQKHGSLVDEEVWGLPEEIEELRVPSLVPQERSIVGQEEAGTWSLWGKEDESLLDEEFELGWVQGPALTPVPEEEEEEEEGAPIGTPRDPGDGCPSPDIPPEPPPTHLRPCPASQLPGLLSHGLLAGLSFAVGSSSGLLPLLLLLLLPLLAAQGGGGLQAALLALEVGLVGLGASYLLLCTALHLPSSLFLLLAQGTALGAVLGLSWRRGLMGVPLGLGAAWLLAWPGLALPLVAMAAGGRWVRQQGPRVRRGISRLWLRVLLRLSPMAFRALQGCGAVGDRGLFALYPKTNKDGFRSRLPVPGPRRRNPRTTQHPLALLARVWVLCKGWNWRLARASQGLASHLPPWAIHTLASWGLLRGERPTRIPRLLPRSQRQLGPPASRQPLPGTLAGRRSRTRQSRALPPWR
Procedure: as §1

GRK5 = molecular target: T26, GRK5 (Homo sapiens, UniProt P34947)
T26 construct: purchased Millipore, Inc. (KinaseProfiler service)
Procedure: as §1

MARK1 = molecular target: T27, MARK1 (Homo sapiens, UniProt Q9P0L2)
T27 construct: purchased Millipore, Inc. (KinaseProfiler service)
T27 sequence (Q9P0L2 whole entry): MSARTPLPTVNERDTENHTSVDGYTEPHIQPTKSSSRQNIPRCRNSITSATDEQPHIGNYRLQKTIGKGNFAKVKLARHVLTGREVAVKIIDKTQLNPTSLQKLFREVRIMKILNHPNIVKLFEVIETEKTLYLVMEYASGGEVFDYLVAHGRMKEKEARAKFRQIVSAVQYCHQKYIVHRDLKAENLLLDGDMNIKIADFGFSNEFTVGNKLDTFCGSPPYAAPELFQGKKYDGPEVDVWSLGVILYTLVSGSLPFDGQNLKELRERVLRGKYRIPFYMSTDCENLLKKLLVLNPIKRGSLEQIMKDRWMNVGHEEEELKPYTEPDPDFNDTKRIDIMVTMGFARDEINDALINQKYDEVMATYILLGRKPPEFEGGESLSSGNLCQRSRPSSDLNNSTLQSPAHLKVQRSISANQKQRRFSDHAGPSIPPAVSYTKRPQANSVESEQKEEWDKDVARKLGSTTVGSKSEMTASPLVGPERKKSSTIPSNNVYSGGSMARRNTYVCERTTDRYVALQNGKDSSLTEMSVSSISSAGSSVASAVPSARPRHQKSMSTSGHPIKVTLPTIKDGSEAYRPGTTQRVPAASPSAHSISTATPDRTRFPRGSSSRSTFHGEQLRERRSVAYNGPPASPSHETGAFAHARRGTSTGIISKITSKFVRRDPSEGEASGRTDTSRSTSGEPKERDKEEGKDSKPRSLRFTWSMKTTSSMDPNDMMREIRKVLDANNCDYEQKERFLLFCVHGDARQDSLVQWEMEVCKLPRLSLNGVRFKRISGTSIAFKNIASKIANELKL
Procedure: as §1

DCAMKL2 = molecular target: T28, DCAMKL2 (Homo sapiens, UniProt Q8N568)
T28 construct: purchased Millipore, Inc. (KinaseProfiler service)
Procedure: as §1

ARK5 = molecular target: T29, ARK5 (Homo sapiens, UniProt O60285)
T29 construct: purchased Millipore, Inc. (KinaseProfiler service)
Procedure: as §1

NEK2 = molecular target: T30, NEK2 (Homo sapiens, UniProt P51955)
T30 construct: purchased Millipore, Inc. (KinaseProfiler service)
Procedure: as §1

MKK4_m = molecular target: T31, MKK4_m (Mus musculus, UniProt P47809)
T31 construct: purchased Millipore, Inc. (KinaseProfiler service)
T31 sequence (P47809 whole entry): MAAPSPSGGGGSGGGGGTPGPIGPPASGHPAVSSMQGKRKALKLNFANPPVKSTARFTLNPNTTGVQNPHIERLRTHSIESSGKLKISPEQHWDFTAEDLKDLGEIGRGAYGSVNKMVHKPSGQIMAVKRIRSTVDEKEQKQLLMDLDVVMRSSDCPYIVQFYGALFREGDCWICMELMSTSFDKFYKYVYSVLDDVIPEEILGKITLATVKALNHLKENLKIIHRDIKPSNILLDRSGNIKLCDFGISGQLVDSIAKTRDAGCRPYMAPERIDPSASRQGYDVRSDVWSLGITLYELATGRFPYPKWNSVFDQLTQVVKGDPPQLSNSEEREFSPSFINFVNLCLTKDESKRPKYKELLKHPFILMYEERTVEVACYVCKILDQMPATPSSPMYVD
Procedure: as §1

MSK1 = molecular target: T32, MSK1 (Homo sapiens, UniProt O75582)
T32 construct: purchased Millipore, Inc. (KinaseProfiler service)
Procedure: as §1

Rsk3 = molecular target: T33, Rsk3 (Homo sapiens, UniProt Q15349)
T33 construct: purchased Millipore, Inc. (KinaseProfiler service)
Procedure: as §1

PKCzeta = molecular target: T34, PKCzeta (Homo sapiens, UniProt Q05513)
T34 construct: purchased Millipore, Inc. (KinaseProfiler service)
Procedure: as §1

CK2 = molecular target: T35, CK2 (Homo sapiens, UniProt P68400)
T35 construct: purchased Millipore, Inc. (KinaseProfiler service)
Procedure: as §1

IRR = molecular target: T36, IRR (Homo sapiens, UniProt P14616)
T36 construct: purchased Millipore, Inc. (KinaseProfiler service)
Procedure: as §1

FGFR4 = molecular target: T37, FGFR4 (Homo sapiens, UniProt P22455)
T37 construct: purchased Millipore, Inc. (KinaseProfiler service)
Procedure: as §1

Fms = molecular target: T38, Fms (Homo sapiens, UniProt P07333)
T38 construct: purchased Millipore, Inc. (KinaseProfiler service)
Procedure: as §1

Flt3 = molecular target: T39, Flt3 (Homo sapiens, UniProt P36888)
T39 construct: purchased Millipore, Inc. (KinaseProfiler service)
Procedure: as §1

NEK11 = molecular target: T40, NEK11 (Homo sapiens, UniProt Q8NG66)
T40 construct: purchased Millipore, Inc. (KinaseProfiler service)
Procedure: as §1

CDK3/cyclinE = molecular target: T41, CDK3/cyclinE (Homo sapiens, UniProt Q00526)
T41 construct: purchased Millipore, Inc. (KinaseProfiler service)
Procedure: as §1

Compound: COCCN1C[C@@H](NC(=O)Nc2sc(C(C)C)nc2-c2ccccc2)[C@H](c2ccccc2)C1 [Example 48, 1-(2-isopropyl-4-phenylthiazol-5-yl)-3-((3S,4R)-1-(2-methoxyethyl)-4-phenylpyrrolidin-3-yl)urea]
- Avg POC (BrSK1): 123.5% of control
- Avg POC (DDR2): 101.5% of control
- Avg POC (STK33): 110% of control
- Avg POC (c-RAF): 106% of control
- Avg POC (MKNK2): 96% of control
- Avg POC (NLK): 108.5% of control
- Avg POC (FAK): 107.5% of control
- Avg POC (CAMK2d): 99% of control
- Avg POC (CHK2): 107.5% of control
- Avg POC (JNK3): 106% of control
- Avg POC (Fes): 86.5% of control
- Avg POC (PDK1): 85.5% of control
- Avg POC (CDK7/cyclinH/MAT1): 112.5% of control
- Avg POC (TAO1): 101% of control
- Avg POC (DRAK1): 104% of control
- Avg POC (MuSK): 107.5% of control
- Avg POC (GSK3alpha): 120.5% of control
- Avg POC (Flt1): 96.5% of control
- Avg POC (EphB2): 99.5% of control
- Avg POC (ALK): 125% of control
- Avg POC (TAK1): 104% of control
- Avg POC (Txk): 85.5% of control
- Avg POC (TBK1): 96.5% of control
- Avg POC (MAPKAP-K5): 108% of control
- Avg POC (TAO2): 100.5% of control
- Avg POC (GRK5): 106.5% of control
- Avg POC (MARK1): 113% of control
- Avg POC (DCAMKL2): 142% of control
- Avg POC (ARK5): 106% of control
- Avg POC (NEK2): 112% of control
- Avg POC (MKK4_m): 122% of control
- Avg POC (MSK1): 121.5% of control
- Avg POC (Rsk3): 108% of control
- Avg POC (PKCzeta): 108% of control
- Avg POC (CK2): 106% of control
- Avg POC (IRR): 110.5% of control
- Avg POC (FGFR4): 102.5% of control
- Avg POC (Fms): 96% of control
- Avg POC (Flt3): 99% of control
- Avg POC (NEK11): 105% of control
- Avg POC (CDK3/cyclinE): 99.5% of control
